What was measured:
[1] = test system: Ba/F3 parental cells; assay: Cell proliferation analysis, Ba/F3 parental; assay type: cell-based; conditions: Mus musculus, BaF3, 72 h; 8 ng/ml IL-3, 3 days, CellTiter-Glo
Method: (§1) The inhibitory effect of the example compounds on Ba/F3, Ba/F3 Bcr-Abl T315I cell activity was determined.
(§2) Materials and reagents: RPMI-1640 medium (GIBCO, Catalog No. A10491-01), fetal bovine serum (GIBCO, Catalog No. 10099141), antibiotics (Penicillin-Streptomycin), IL-3 (PeproTech), promycin; cell lines: Ba/F3, Ba/F3 Bcr-Abl T315I (Purchased from American type culture collection, ATCC), live cell detection kit […] (Promega, Catalog No. G7572), 96-well black wall transparent flat bottom cell culture plate (Corning, Catalog No. 3340).
(§3) Test method: 1. Preparation of cell plate: Ba/F3, Ba/F3 Bcr-Abl T315I cells were respectively seeded in 96-well plates, and 8 ng/ml IL-3 was added to the Ba/F3 cells, and the cell plates were placed in a carbon dioxide incubator and cultured overnight. 2. The test compounds were dissolved in DMSO, 9 compound concentrations were made with a 3.16-fold gradient dilution in triplicate. 3. Treatment of the cells with compounds: The compounds were transferred to the cell plate with a starting concentration of 10 μM. The cell plate was placed in a carbon dioxide incubator for 3 days. 4. Detection: CellTiter-Glo agent was added to the cell plate, and incubated at room temperature for 30 minutes to stabilize the luminous signal. PerkinElmer Envision multi-label analyzer was used for reading, wherein A represents […], B represents IC50 is 10-20 nM, C represents IC50 is 20-50 nM, D represents IC50 is 50-1000 nM, E represents IC50>1000 nM.

[2] = Metabolic stability evaluation, human liver microsome assay; assay type: in vitro ADME; conditions: pH 7.4, human liver microsomes 0.5 mg/mL, compound 1 μM, 37° C.; for microsomal CLint at 1 μM: read-out: HLM Clint; for half-life at 1 μM: read-out: HLM T1/2
Method: Microsome assay: human liver microsomes: 0.5 mg/mL, Xenotech; coenzyme (NADPH/NADH): 1 mM, Sigma Life Science; magnesium chloride: 5 mM, 100 mM phosphate buffer (pH is 7.4).
Preparation of stock solution: Powder of the example compounds and the reference compound were accurately weighed, and dissolved to 5 mM with DMSO, respectively.
Preparation of phosphate buffer (100 mM, pH7.4): Pre-formulated 150 mL 0.5 M potassium dihydrogen phosphate and 700 mL 0.5 M dipotassium hydrogen phosphate were mixed, then the pH of the mixture was adjusted to 7.4 with 0.5 M dipotassium hydrogen phosphate. Before use, 5-fold dilution was made with ultra-pure water, and magnesium chloride was added to afford phosphate buffer (100 mM), which containing 100 mM potassium phosphate, 3.3 mM magnesium chloride, and pH is 7.4.
NADPH regeneration system solution (containing 6.5 mM NADP, 16.5 mM G-6-P, 3 U/mL G-6-P D, 3.3 mM magnesium chloride) was prepared and placed on wet ice before use.
Preparation of stop solution: Acetonitrile solution containing 50 ng/mL propranolol hydrochloride and 200 ng/mL tolbutamide (internal standard). 25057.5 μL phosphate buffer (pH 7.4) was taken into a 50 mL centrifuge tube, and 812.5 μL human liver microsome was added respectively, mixed well to afford liver microsome diluention with a protein concentration of 0.625 mg/mL.
Incubation of the sample: The stock solutions of the corresponding compounds were diluted to 0.25 mM with an aqueous solution containing 70% acetonitrile as working solutions for use. 398 μL of human liver microsome diluention was taken and added to a 96-well incubation plate (N=2), respectively, and 2 μL of 0.25 mM working solutions were then added respectively, and mixed well.
Determination of metabolic stability: 300 μL of pre-chilled stop solution was added to each well of a 96-well deep well plate and the plate was placed on ice as a stop plate. The 96-well incubation plate and NADPH regeneration system were placed in a 37° C. water bath, shook at 100 rpm, and pre-incubated for 5 min. 80 μL of incubation solution was taken from each well of the incubation plate and added to the stop plate, mixed well, and 20 μL of NADPH regeneration system solution was supplemented, the resulted solution was considered as sample at 0 min. Then 80 μL of NADPH regeneration system solution was added to each well of the incubation plate to start the reaction and started timing. The reaction concentration of the corresponding compound is 1 μM, and the protein concentration is 0.5 mg/mL. 100 μL reaction solution was taken at 10, 30, 90 min of reaction, respectively, and added into stop plate, the reaction was stopped with 3 min vortex. The stop plate was centrifuged at 5000×g, 4° C. for 10 min. 100 μL of supernatant was taken to a 96-well plate where 100 μL of distilled water was added in advance, mixed well, sample analysis was carried out by LC-MS/MS.
Data analysis: LC-MS/MS system was used to detect peak area of corresponding compound and internal standard, peak area ratio of compound to internal standard was calculated. The slope was measured by plotting the natural logarithm of the remaining percentage of the compound versus time, and t1/2 and CLint were calculated according to the following formula, wherein V/M means 1/protein concentration.

[3] = molecular target: ABL (Homo sapiens (Human), UniProt P00519); assay: Biochemical kinase analysis, ABL
Method: (§4) Reagents and materials: ABL (ThermoFisher, Cat. No PV3585), ABL^T315I (Thermo Fisher, Cat. No. PR7429B), ATP (Sigma, Cat. No. A7699-1G), DMSO (Sigma, Cat. No. D2650), 96-well plate (Corning, Cat. No. 3365), 384-well plate (Greiner, Cat. No. 784076), buffer solution (Thermo Fisher, Cat. No. PR4876B).
(§5) Compound formulation: The test compounds were dissolved in DMSO to prepare a 20 mM stock solution. Before use, the compounds were diluted in DMSO to 0.1 mM, and diluted into 11 concentrations with a 3-fold gradient. When addition, diluentions of 4-fold final concentration were then made with buffer solution.
(§6) Kinase assay method: After preparing the buffer, the enzyme was mixed with pre-formulated and diluted compounds of different concentrations in duplicate for each concentration, and placed at room temperature for 30 minutes. The corresponding substrate and ATP were added thereto, and reacted at room temperature for 60 minutes (both a negative and a positive control were set). After the reaction, antibody was added for detection, Envision detection was carried out after 60 minutes incubation at room temperature, and data was collected. Data analysis and fitting were made according to XLfit5 software, wherein, A represents IC50≤5 nM, B represents IC50 is 5-50 nM, C represents IC50 is 50-100 nM, D represents IC50>100 nM.

[4] = molecular target: ABL^T315I (Homo sapiens (Human), UniProt P00519, T315I); assay: Biochemical kinase analysis, ABL T315I
Method: as §4, §5, §6

[5] = test system: Ba/F3 Bcr-Abl T315I cells; assay: Cell proliferation analysis, Ba/F3 Bcr-Abl T315I; assay type: cell-based; conditions: for IC50: Mus musculus, BaF3, 72 h, 3 days, CellTiter-Glo; for Selectivity [Ba/F3 (parental/Bcr-Abl ^T315I)]: ratio of Ba/F3 parental to Ba/F3 Bcr-Abl T315I
Method: as §1, §2, §3

| microsomal CLint at 1 μM [2] [µL/min/mg] | half-life at 1 μM [2] [h] | IC50 [3] [nM] | IC50 [4] [nM] | IC50 [5] [nM] | Compound | IC50 [1] [nM] | Selectivity [Ba/F3 (parental/Bcr-Abl ^T315I)] [5] |
| --- | --- | --- | --- | --- | --- | --- | --- |
| 19.9 | 1.16 | ≤ 5 | ≤ 5 | ≤ 10 | CCn1cc(C#Cc2cc(C(=O)Nc3ccc(CN4CCN(C)CC4)c(C(F)(F)F)c3)ccc2C)c2c(N)ncnc21 [Example 5, 3-((4-amino-7-ethyl-7H-pyrrolo[2,3-d]pyrimidin-5-yl)ethynyl)-4-methyl-N-(4-((4-methylpiperazin-1-yl)methyl)-3-(trifluoromethyl)phenyl)benzamide] | 50 to 1000 | 100~150 |
| 3.5 | 6.58 | ≤ 5 | ≤ 5 | 10 to 20 | CCn1cc(C#Cc2cc(C(=O)Nc3cccc(C(F)(F)F)c3)ccc2C)c2c(N)ncnc21 [Example 6, 3-((4-amino-7-ethyl-7H-pyrrolo[2,3-d]pyrimidin-5-yl)ethynyl)-4-methyl-N-(3-(trifluoromethyl)phenyl)benzamide] | > 1000 | 100~150 |
| 20.9 | 1.11 | 5 to 50 | 5 to 50 | 20 to 50 | Cc1cn(-c2cc(NC(=O)c3ccc(C)c(C#Cc4cn(C(C)C)c5ncnc(N)c45)c3)cc(C(F)(F)F)c2)cn1 [Example 12, 3-((4-amino-7-isopropyl-7H-pyrrolo[2,3-d]pyrimidin-5-yl)ethynyl)-4-methyl-N-(3-(4-methyl-1H-imidazol-1-yl)-5-(trifluoromethyl)phenyl)benzamide] | > 1000 | 150~500 |
| 11.8 | 1.95 | ≤ 5 | ≤ 5 | 20 to 50 | Cc1ccc(C(=O)Nc2ccc(CN3CCN(C)CC3)c(C(F)(F)F)c2)cc1C#Cc1cn(C(C)C)c2ncnc(N)c12 [Example 15, 3-((4-amino-7-isopropyl-7H-pyrrolo[2,3-d]pyrimidin-5-yl)ethynyl)-4-methyl-N-(4-((4-methylpiperazin-1-yl)methyl)-3-(trifluoromethyl)phenyl)benzamide] | > 1000 | 0~50 |
| 17.2 | 1.34 | ≤ 5 | ≤ 5 | 10 to 20 | CCn1cc(C#Cc2cc(NC(=O)c3cccc(C(F)(F)F)c3)ccc2C)c2c(N)ncnc21 [Example 17, N-(3-((4-amino-7-ethyl-7H-pyrrolo[2,3-d]pyrimidin-5-yl)ethynyl)-4-methylphenyl)-3-(trifluoromethyl)benzamide] | > 1000 | 50~100 |
| 17 | 1.36 | ≤ 5 | ≤ 5 | ≤ 10 | CCn1cc(C#Cc2cc(NC(=O)c3ccc(CN4CCN(C)CC4)c(C(F)(F)F)c3)ccc2C)c2c(N)ncnc21 [Example 18, N-(3-((4-amino-7-ethyl-7H-pyrrolo[2,3-d]pyrimidin-5-yl)ethynyl)-4-methylphenyl)-4-((4-methylpiperazin-1-yl)methyl)-3-(trifluoromethyl)benzamide] | > 1000 | 100~150 |
| 6.1 | 3.8 | ≤ 5 | ≤ 5 | 20 to 50 | Cc1ccc(C(=O)Nc2ccc(CN3CCN(C)CC3)c(C(F)(F)F)c2)cc1C#Cc1cn([C@H]2CC[C@H](O)CC2)c2ncnc(N)c12 [Example 22, 3-((4-amino-7-((1r,4r)-4-hydroxycyclohexyl)-7H-pyrrolo[2,3-d]pyrimidin-5-yl)ethynyl)-4-methyl-N-(4-((4-methylpiperazin-1-yl)methyl)-3-(trifluoromethyl)phenyl)benzamide] | > 1000 | 0~50 |
| 7.6 | 3.03 | ≤ 5 | ≤ 5 | 20 to 50 | Cc1ccc(NC(=O)c2ccc(CN3CCN(C)CC3)c(C(F)(F)F)c2)cc1C#Cc1cn([C@H]2CC[C@H](O)CC2)c2ncnc(N)c12 [Example 25, N-(3-((4-amino-7-((1r,4r)-4-hydroxycyclohexyl)-7H-pyrrolo[2,3-d]pyrimidin-5-yl)ethynyl)-4-methylphenyl)-4-((4-methylpiperazin-1-yl)methyl)-3-(trifluoromethyl)benzamide] | > 1000 | 0~50 |

Reference: patent US11840535B2, “Alkynyl(hetero)aromatic compound for inhibiting protein kinase activity” (Shenzhen TargetRx, Inc., priority 2018, dated 2023)
